The target in test [1] is T1, GST fusion human ERK2 protein (Homo sapiens, UniProt P28482).
T1 construct: purchased Carna Biosciences, Inc; host or cells: E. coli expression system
In words: ERK2 enzyme assay (1). Type of test: biochemical. The note with it: ERK2 enzyme assay (1); read-out: ERK2 enzyme inhibitory activity (1). The method, boiled down:
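IC50 derived from the proportion of phosphorylated 5-FAM peptide, separated from unphosphorylated peptide by microfluidic mobility shift. Compound was first preincubated 15 min at room temperature with 2.5 nmol/L kinase at pH 7.5, then 43.1 μmol/L ATP plus 4.25 μmol/L substrate reacted 120 min at 25 °C.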

In the next test the target is T2, human PI3Kα protein (Homo sapiens, UniProt P42336).
T2 construct: purchased Carna Biosciences, Inc; host or cells: baculovirus expression system
T2 sequence (P42336 whole entry): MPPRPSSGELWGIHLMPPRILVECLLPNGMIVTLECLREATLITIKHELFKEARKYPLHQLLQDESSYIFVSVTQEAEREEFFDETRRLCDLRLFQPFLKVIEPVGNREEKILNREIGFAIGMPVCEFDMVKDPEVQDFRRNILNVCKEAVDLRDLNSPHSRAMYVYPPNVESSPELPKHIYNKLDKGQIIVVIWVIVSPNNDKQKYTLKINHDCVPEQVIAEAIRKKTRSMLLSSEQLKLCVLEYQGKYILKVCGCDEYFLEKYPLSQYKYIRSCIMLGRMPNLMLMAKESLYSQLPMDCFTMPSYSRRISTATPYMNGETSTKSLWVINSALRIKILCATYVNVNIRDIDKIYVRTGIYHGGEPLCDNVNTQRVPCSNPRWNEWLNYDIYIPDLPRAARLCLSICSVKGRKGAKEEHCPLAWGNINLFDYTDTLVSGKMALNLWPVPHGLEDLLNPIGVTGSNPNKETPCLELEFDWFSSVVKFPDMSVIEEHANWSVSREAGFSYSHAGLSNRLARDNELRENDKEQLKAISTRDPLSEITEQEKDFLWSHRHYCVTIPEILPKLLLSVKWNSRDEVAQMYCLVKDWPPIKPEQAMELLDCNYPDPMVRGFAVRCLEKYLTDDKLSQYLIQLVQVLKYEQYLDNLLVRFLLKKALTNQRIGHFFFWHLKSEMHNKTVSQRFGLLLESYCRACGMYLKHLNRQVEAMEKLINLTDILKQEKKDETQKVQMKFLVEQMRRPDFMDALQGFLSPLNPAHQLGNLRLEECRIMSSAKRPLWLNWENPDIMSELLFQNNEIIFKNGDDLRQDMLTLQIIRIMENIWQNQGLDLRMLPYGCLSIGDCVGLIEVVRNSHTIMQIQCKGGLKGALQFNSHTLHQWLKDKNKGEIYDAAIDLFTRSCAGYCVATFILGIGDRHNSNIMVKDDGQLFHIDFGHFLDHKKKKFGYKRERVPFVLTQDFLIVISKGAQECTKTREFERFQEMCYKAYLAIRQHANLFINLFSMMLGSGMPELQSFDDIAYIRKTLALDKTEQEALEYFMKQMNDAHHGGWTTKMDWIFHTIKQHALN
T2 sequence (P27986 whole entry partner): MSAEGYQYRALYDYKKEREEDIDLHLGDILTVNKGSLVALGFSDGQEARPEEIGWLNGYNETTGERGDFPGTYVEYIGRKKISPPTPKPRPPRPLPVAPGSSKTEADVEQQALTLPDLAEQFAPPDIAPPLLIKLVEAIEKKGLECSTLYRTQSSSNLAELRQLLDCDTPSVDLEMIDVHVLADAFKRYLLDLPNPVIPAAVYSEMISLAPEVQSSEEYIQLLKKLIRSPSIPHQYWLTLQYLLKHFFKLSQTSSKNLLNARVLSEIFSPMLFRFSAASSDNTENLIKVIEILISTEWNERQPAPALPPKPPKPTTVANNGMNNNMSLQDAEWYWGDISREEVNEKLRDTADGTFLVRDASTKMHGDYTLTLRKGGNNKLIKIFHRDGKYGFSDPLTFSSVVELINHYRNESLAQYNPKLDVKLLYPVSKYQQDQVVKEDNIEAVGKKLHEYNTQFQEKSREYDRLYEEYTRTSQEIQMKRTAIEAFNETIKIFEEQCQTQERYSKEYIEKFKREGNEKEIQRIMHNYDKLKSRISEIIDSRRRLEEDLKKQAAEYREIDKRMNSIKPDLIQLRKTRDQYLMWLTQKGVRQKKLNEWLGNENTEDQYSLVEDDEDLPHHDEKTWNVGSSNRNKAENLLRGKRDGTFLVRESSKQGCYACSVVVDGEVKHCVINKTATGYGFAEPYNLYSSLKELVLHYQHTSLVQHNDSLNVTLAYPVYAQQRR
Nature of the test: PI3Kα enzyme assay (ADP-Glo). Type of test: biochemical. The note with it: read-out: PI3Kα enzyme inhibitory activity. An outline of the steps: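 Biotinylated human PI3Kα (baculovirus-expressed, 4.5 nmol/L) pre-incubated 15 min with compound in Tris-HCl pH 7.5, MgCl2, BSA; reaction 60 min at 25° C with 50 μmol/L PIP2 and 100 μmol/L ATP final. ADP quantified by ADP-Glo luminescence; IC50 calculated.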

Test [2] concerns the target T1, GST fusion human ERK2 protein. In words: ERK2 enzyme assay (2). The note with it: ERK2 enzyme assay (2); read-out: ERK2 enzyme inhibitory activity (2). It counts as biochemical. The method, boiled down:
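IC50 values come from mobility-shift measurement of phosphorylated versus unphosphorylated 5-FAM peptide substrate after EDTA quench. Beforehand, compound and 1.25 nmol/L E. coli-expressed GST–human ERK2 stood 15 min at room temperature (pH 7.5), then 1 mmol/L ATP and 4.25 μmol/L substrate (final) were added for 120 min at 25 °C.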

In another test the test system is CHO-K1 cells. Nature of the test: CHO cell toxicity test. Type of test: cell-based, Chinese hamster. The note with it: Cricetulus griseus, read-out: IC50 value (concentration at which the number of viable cells was suppressed to 50% or less). The protocol:
In a CHO cell toxicity test, the following was used.
Cell: CHO-K1 cells (derived from Chinese hamster ovary) Test medium: F-12 MEDIUM+FCS (manufactured by Biowest) having a final concentration of 2%
Detection reagent: CELLTITER-GLO™ LUMINESCENT CELL VIABILITY ASSAY (trade name, manufactured by PROMEGA Corporation)
The CHO-K1 cells were seeded in a 96-well microplate for culture at 5,000 cells/well, and cultured in a CO2 incubator (37° C.) for 24 hours. An evaluation compound (final concentration: from 25.00 μmol/L to 0.20 μmol/L, common ratio: […]) was added thereto, followed by culturing for 24 hours, and the number of viable cells was calculated from emission intensity by CELLTITER-GLO™ (trade name, manufactured by PROMEGA Corporation). In the measurement of the emission intensity, VARIOSKAN FLASH (manufactured by Thermo Fisher Scientific Inc.) was used.
Inhibition ratio (%)=100−(A/B)×100
A: Emission intensity in the presence of a test compound
B: Emission intensity in the absence of a test compound

Setting [3] is: CHO-K1 cells, 24 hours culture with compound, CellTiter-Glo.

Read-outs that look alike come from different tables or passages of the source.

T1 sequence (P28482 whole entry, the tested form may be a part): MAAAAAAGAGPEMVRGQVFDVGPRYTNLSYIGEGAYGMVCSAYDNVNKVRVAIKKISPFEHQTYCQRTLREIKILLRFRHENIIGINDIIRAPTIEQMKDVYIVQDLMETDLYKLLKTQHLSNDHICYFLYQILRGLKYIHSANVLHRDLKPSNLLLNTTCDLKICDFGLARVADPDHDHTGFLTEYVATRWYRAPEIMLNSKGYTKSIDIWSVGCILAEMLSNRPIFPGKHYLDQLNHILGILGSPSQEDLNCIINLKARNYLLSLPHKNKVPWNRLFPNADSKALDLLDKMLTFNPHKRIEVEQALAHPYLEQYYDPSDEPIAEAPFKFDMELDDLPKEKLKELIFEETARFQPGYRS

Turning to `CNCc1nn(C)cc1-c1cnc2ccc(Nc3nnc(C(C)C)s3)nc2c1` [Example 0383, 5-isopropyl-N-(7-(1-methyl-3-((methylamino)methyl)-1H-pyrazol-4-yl)-1,5-naphthyridin-2-yl)-1,3,4-thiadiazole-2-amine], the results for the IC50 (in test [1]; at human PI3Kα protein; in test [2]) were less than 1000 nM, 1000 to 10000 nM and less than 1000 nM, respectively.

As for `c1nc2ccc(Nc3cc(N4CCCC4)cnn3)nc2cc1-c1cnn(CCCN2CCCC2)c1` [Example 0402, 7-(1-(3-(Pyrrolidin-1-yl)propyl)-1H-pyrazol-4-yl)-N-(5-(pyrrolidin-1-yl)pyridazin-3-yl)-1,5-naphthyridine-2-amine], the IC50 (in test [1]; on human PI3Kα protein; in test [2]) was less than 1000 nM in each case.

For `CC(C)c1cnnc(Nc2ccc3ncc(-c4cnn(CCCN5CCC(F)CC5)c4)cc3n2)c1` [Example 0413, 7-(1-(3-(4-Fluoropiperidin-1-yl)propyl)-1H-pyrazol-4-yl)-N-(5-isopropylpyridazin-3-yl)-1,5-naphthyridine-2-amine], the IC50 in the test with CHO-K1 cells (setting [3]) is no less than 25000 nM; at human PI3Kα protein, less than 1000 nM; in test [2], less than 1000 nM.

For `CC(C)c1cnnc(Nc2ccc3ncc(-c4cnn(CCCN5CCS(=O)(=O)CC5)c4)cc3n2)c1` [Example 0417, 4-(3-(4-(6-((5-isopropylpyridazin-3-yl)amino)-1,5-naphthyridin-3-yl)-1H-pyrazol-1-yl)propyl)thiomorpholine 1,1-dioxide], the IC50 was no less than 25000 nM in the test with CHO-K1 cells (setting [3]), less than 1000 nM on human PI3Kα protein and less than 1000 nM in test [2].

With `CC(C)c1cnnc(Nc2ccc3ncc(-c4cnn(CCC(C)N5CCOCC5)c4)cc3n2)c1` (stereo not drawn) [Example 0418, N-(5-isopropylpyridazin-3-yl)-7-(1-(3-morpholinobutyl)-1H-pyrazol-4-yl)-1,5-naphthyridine-2-amine], the IC50 was no less than 25000 nM in the test on CHO-K1 cells (setting [3]), less than 1000 nM on human PI3Kα protein and less than 1000 nM in test [2].

`CC(C)c1cnnc(Nc2ccc3ncc(-c4cnn(CCCN5CCSCC5)c4)cc3n2)c1` [Example 0420]: the IC50 in the test on CHO-K1 cells (setting [3]) was no less than 25000 nM; on human PI3Kα protein it was less than 1000 nM; in test [2], less than 1000 nM.

Take `CC(C)c1cnnc(Nc2ccc3ncc(-c4cnn(CCCN5CCCC5=O)c4)cc3n2)c1` [Example 0422]: the IC50 is no less than 25000 nM with CHO-K1 cells (setting [3]), less than 1000 nM on human PI3Kα protein and less than 1000 nM in test [2].

For the compound `CC(C)c1cnnc(Nc2ccc3ncc(-c4cnn(CCCN5CCOCC5=O)c4)cc3n2)c1` [Example 0424], the IC50 was no less than 25000 nM in the test with CHO-K1 cells (CHO-K1, 24 h); less than 1000 nM on human PI3Kα protein; less than 1000 nM in test [2].

Take `CC(C)c1cnnc(Nc2ccc3ncc(-c4cnn(CCCN5C[C@@H](C)N(C)[C@@H](C)C5)c4)cc3n2)c1` [Example 0426, N-(5-isopropylpyridazin-3-yl)-7-(1-(3-((3S,5R)-3,4,5-trimethylpiperazin-1-yl)propyl)-1H-pyrazol-4-yl)-1,5-naphthyridine-2-amine]: the IC50 is no less than 25000 nM with CHO-K1 cells (setting [3]), less than 1000 nM on human PI3Kα protein and less than 1000 nM in test [2].

For `CC(C)c1cnnc(Nc2ccc3ncc(-c4cnn(CCCN5CCC(O)CC5)c4)cc3n2)c1` [Example 0430], the figures for the IC50 (with CHO-K1 cells (setting [3]); on human PI3Kα protein; in test [2]) were no less than 25000 nM, less than 1000 nM and less than 1000 nM, respectively.

As to `Cc1nn(CCCN2C[C@@H](C)O[C@@H](C)C2)cc1-c1cnc2ccc(Nc3cc(C(C)C)cnn3)nc2c1` [Example 0431], the IC50 with CHO-K1 cells (setting [3]) is no less than 25000 nM; on human PI3Kα protein, less than 1000 nM; in test [2] it was less than 1000 nM.

Consider `CC(C)c1cnnc(Nc2ccc3ncc(-c4cnn(CCCN5[C@H](C)CCC[C@@H]5C)c4)cc3n2)c1` [Example 0432], for which the figures for the IC50 (with CHO-K1 cells (setting [3]); at human PI3Kα protein; in test [2]) were no less than 25000 nM, less than 1000 nM and less than 1000 nM, respectively.

For the compound `CC(C)c1cnnc(Nc2ccc3ncc(-c4cnn(CCCN5C[C@@H](C)N[C@@H](C)C5)c4)cc3n2)c1` [Example 0439, 7-(1-(3-((3S,5R)-3,5-dimethylpiperazin-1-yl)propyl)-1H-pyrazol-4-yl)-N-(5-isopropylpyridazin-3-yl)-1,5-naphthyridine-2-amine], the IC50 was no less than 25000 nM in the test on CHO-K1 cells (setting [3]), less than 1000 nM on human PI3Kα protein and less than 1000 nM in test [2].

In the case of `CC(=O)N1CC(n2cc(-c3cnc4ccc(Nc5cc(C(C)C)cnn5)nc4c3)cn2)C1` [Example 0443], the IC50 is no less than 25000 nM with CHO-K1 cells (setting [3]), less than 1000 nM at human PI3Kα protein and less than 1000 nM in test [2].

As for `CC(C)c1cnnc(Nc2ccc3ncc(-c4cnn(Cc5cocn5)c4)cc3n2)c1` [Example 0450], the IC50 with CHO-K1 cells (setting [3]) is no less than 25000 nM; on human PI3Kα protein, less than 1000 nM; in test [2], less than 1000 nM.

For the compound `CC(C)c1cnnc(Nc2ccc3ncc(-c4cn(C)nc4-c4ccc(C#N)nc4)cc3n2)c1` [Example 0455], the IC50 in the test with CHO-K1 cells (setting [3]) was no less than 25000 nM; at human PI3Kα protein, less than 1000 nM; in test [2] it was less than 1000 nM.

Take `COc1ccc(-c2nn(C)cc2-c2cnc3ccc(Nc4cc(C(C)C)cnn4)nc3c2)cn1` [Example 0456]: the values for the IC50 (with CHO-K1 cells (setting [3]); on human PI3Kα protein; in test [2]) were no less than 25000 nM, less than 1000 nM and less than 1000 nM, respectively.

Take `CC(C)c1cnnc(Nc2ccc3ncc(-c4cnn(CC(F)(F)F)c4)cc3n2)c1` [Example 0460]: the IC50 was no less than 25000 nM in the test on CHO-K1 cells (setting [3]), less than 1000 nM on human PI3Kα protein and less than 1000 nM in test [2].

On to `CC(C)c1cnnc(Nc2ccc3ncc(-c4cnn(Cc5ccc(N6CCOCC6)nc5)c4)cc3n2)c1` [Example 0462, N-(5-isopropylpyridazin-3-yl)-7-(1-((6-morpholinopyridin-3-yl)methyl)-1H-pyrazol-4-yl)-1,5-naphthyridine-2-amine], for which the IC50 with CHO-K1 cells (setting [3]) is no less than 25000 nM; on human PI3Kα protein it was less than 1000 nM; in test [2] it was less than 1000 nM.

In the case of `FC(F)(F)Cn1cc(-c2cnc3ccc(Nc4cc(C5CC5)cnn4)nc3c2)cn1` [Example 0465, N-(5-cyclopropylpyridazin-3-yl)-7-(1-(2,2,2-trifluoroethyl)-1H-pyrazol-4-yl)-1,5-naphthyridine-2-amine], the IC50 in the test on CHO-K1 cells (setting [3]) was no less than 25000 nM; at human PI3Kα protein it was less than 1000 nM; in test [2], less than 1000 nM.

As to `COCCn1cc(-c2cnc3ccc(Nc4cc(C(C)C)cnn4)nc3c2)cn1` [Example 0471, N-(5-isopropylpyridazin-3-yl)-7-(1-(2-methoxyethyl)-1H-pyrazol-4-yl)-1,5-naphthyridine-2-amine], the IC50 (in test [1]; on human PI3Kα protein; in test [2]) was less than 1000 nM in each case.

With `COCCCn1cc(-c2cnc3ccc(Nc4cc(C(C)C)cnn4)nc3c2)cn1` [Example 0472], the IC50 (in test [1]; at human PI3Kα protein; in test [2]) was less than 1000 nM each time.

In the case of `CC(C)c1cnnc(Nc2ccc3ncc(-c4cnn(C5CCOCC5)c4)cc3n2)c1` [Example 0475, N-(5-isopropylpyridazin-3-yl)-7-(1-(tetrahydro-2H-pyran-4-yl)-1H-pyrazol-4-yl)-1,5-naphthyridine-2-amine], the IC50 (in test [1]; at human PI3Kα protein; in test [2]) was less than 1000 nM in each case.

As to `CC(C)c1cnnc(Nc2ccc3ncc(-c4cnn(C5CCN(S(C)(=O)=O)CC5)c4)cc3n2)c1` [Example 0479], the IC50 in the test on CHO-K1 cells (setting [3]) was no less than 25000 nM; at human PI3Kα protein it was less than 1000 nM; in test [2], less than 1000 nM.

`CC(C)c1cnnc(Nc2ccc3ncc(-c4cnn(CC5CCOCC5)c4)cc3n2)c1` [Example 0482]: the IC50 is no less than 25000 nM with CHO-K1 cells (setting [3]), less than 1000 nM on human PI3Kα protein and less than 1000 nM in test [2].

On to `COc1cc(-c2cnc3ccc(Nc4cc(C(C)C)cnn4)nc3c2)ccn1` [Example 0588], for which the IC50 in test [1] is less than 1000 nM; at human PI3Kα protein it was 1000 to 10000 nM; in test [2], less than 1000 nM.

Turning to `CC(C)c1cnnc(Nc2ccc3ncc(-c4ccnc(O)c4)cc3n2)c1` [Example 0589, 4-(6-((5-isopropylpyridazin-3-yl)amino)-1,5-naphthyridin-3-yl)pyridin-2-ol], the IC50 (in test [1]; on human PI3Kα protein; in test [2]) was less than 1000 nM in each case.
